Among the data in ChEMBL document CHEMBL4421721, “Use of dynamin ring stabilizers” (2012) are Activity, inhibition and IC50 values, retold here.

For test [1], the species on record is Ovis aries. The experiment in a line: Induction of self assembly of full-length native sheep brain dynamin 1 assessed as formation of dynamin rings at 5.4 uM using 200 nM full-length dynamin in absence of PS liposomes by electron microscopic analysis.
The species named for test [2] is Ovis aries. The experiment in a line: Inhibition of full-length native sheep brain dynamin 1 assessed as reduction in PS liposomes-induced GTPase activity at 5 uM.
The species named for test [3] is Ovis aries. The experiment in a line: Inhibition of full-length native sheep brain dynamin 1 assessed as reduction in PS liposomes-induced GTPase activity at 5 uM using 400 nM full-length dynamin 1.
Test [4] is filed under the species Ovis aries. The experiment in a line: Ring stabilizer activity at full-length native sheep brain dynamin 1 assessed as stimulation of GTPase activity at 5 uM in absence of PS liposomes using =>100 nM full-length dynamin 1.
For test [5], the species on record is Ovis aries. The experiment in a line: Ring stabilizer activity at full-length native sheep brain dynamin 1 assessed as stimulation of GTPase activity at 5 uM in absence of PS liposomes using <100 nM full-length dynamin 1.
The nature of test [6]: Inhibition of helical full-length native sheep brain dynamin 1 assessed as reduction in PS liposomes-induced GTPase activity. The arrangement: species or system Ovis aries.
The species entered for test [7] is Ovis aries. The experiment in a line: Ring stabilizer activity at full-length native sheep brain dynamin 1 assessed as stimulation of GTPase activity using 800 nM full-length dynamin in presence of 30 mM NaCl in absence of PS liposomes and measured after 4 mins. The note with it: TDE = time-dependent effect.
Test [8] addresses T1, Dynamin-1 (Homo sapiens) (UniProt Q05193).
T1 sequence (whole entry): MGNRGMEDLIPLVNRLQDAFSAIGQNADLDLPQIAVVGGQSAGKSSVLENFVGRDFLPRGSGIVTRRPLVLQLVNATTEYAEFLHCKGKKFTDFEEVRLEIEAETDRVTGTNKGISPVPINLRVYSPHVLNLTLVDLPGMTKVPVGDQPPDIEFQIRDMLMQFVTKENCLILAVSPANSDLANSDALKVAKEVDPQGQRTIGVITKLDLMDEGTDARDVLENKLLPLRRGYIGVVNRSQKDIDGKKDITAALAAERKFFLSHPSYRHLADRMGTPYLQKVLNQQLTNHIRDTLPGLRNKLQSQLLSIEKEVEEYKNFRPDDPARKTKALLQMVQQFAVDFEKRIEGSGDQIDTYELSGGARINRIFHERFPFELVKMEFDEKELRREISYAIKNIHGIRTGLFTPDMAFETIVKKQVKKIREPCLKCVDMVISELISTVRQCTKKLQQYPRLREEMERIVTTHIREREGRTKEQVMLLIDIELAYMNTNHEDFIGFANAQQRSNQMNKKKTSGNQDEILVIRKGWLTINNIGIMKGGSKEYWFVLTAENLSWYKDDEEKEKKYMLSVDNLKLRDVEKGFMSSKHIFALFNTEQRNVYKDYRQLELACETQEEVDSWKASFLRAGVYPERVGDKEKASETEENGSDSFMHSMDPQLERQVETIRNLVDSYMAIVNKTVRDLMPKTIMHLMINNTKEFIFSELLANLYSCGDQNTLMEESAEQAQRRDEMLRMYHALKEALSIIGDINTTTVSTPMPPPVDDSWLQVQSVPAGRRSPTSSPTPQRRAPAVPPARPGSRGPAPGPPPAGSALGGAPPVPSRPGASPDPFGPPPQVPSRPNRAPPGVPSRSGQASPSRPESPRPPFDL
The experiment in a line: Ring stabilizer activity at recombinant dynamin 1 dimeric GG2 form (unknown origin) assessed as stimulation of GTPase activity using 200 to 1000 nM full-length dynamin.

Test [9] is filed under the species Ovis aries. The experiment in a line: Inhibition of dis-assembly of pre-assembled full-length native sheep brain dynamin 1 pre-incubated in presence of PS liposomes followed compound addition at 5 uM and measured after 10 mins.
Test [10] is filed under the species Ovis aries. The experiment in a line: Induction of helical shape alteration of full-length native sheep brain dynamin 1 by electron microscopic analysis.
The species named for test [11] is Ovis aries. The experiment in a line: Ring stabilizer activity at full-length native sheep brain dynamin 1 assessed as stimulation of GTPase activity in absence of PS liposomes and in presence of tween-80.
The species named for test [12] is Ovis aries. The experiment in a line: Ring stabilizer activity at full-length native sheep brain dynamin 1 assessed as increase in basal dynamin GTP hydrolysis up to 40 mins.
The species named for test [13] is Ovis aries. The experiment in a line: Ring stabilizer activity at full-length native sheep brain dynamin 1 assessed as increase in basal dynamin GTP hydrolysis up to 40 mins in presence of Gsn-F-actin.
Test [14] deals with T2, Dynamin-1 (Mus musculus) (UniProt P39053).
T2 sequence (whole entry): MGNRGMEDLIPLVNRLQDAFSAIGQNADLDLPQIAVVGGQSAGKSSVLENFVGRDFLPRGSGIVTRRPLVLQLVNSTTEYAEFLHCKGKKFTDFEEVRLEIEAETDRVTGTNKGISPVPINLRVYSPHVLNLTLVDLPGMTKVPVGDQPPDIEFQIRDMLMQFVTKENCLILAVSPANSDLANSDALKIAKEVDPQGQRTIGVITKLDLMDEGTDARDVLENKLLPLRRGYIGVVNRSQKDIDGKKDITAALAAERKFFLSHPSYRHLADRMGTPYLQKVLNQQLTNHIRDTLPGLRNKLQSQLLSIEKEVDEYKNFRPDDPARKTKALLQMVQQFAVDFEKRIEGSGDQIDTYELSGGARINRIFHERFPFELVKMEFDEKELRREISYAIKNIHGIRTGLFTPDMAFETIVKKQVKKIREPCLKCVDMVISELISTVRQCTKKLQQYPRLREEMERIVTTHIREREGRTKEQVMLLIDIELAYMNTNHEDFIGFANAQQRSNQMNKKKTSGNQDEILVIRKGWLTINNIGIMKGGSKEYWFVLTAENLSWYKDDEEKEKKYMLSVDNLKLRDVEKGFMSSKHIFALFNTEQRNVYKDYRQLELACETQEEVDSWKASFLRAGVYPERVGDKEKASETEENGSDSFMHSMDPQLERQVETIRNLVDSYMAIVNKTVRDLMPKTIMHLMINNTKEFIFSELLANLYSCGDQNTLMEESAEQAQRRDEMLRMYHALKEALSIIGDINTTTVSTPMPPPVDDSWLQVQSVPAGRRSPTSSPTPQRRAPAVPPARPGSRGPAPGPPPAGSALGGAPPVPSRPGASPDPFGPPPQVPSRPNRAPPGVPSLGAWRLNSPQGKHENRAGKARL
The experiment in a line: Ring stabilizer activity at dynamin in mouse podocytes assessed as increase in well-defined stress fibers incubated for 10 mins. Format: cell-based.

The target of test [15] is T2, Dynamin-1 (Mus musculus). The experiment in a line: Ring stabilizer activity at dynamin in mouse podocytes assessed as increase in focal adhesions incubated for 10 mins by paxillin staining based assay. Format: cell-based.
The species named for test [16] is Mus musculus. The experiment in a line: Inhibition of endocytosis in mouse podocytes. Type of test: functional, cell-based.
For test [17], the system named is Mus musculus. The experiment in a line: Reduction in proteinuria in mouse model of proteinuria expressing ACTN4 gene gain of function mutation at 166 ug/100 g body weight, ip dosed at 0 hrs and measured every 2 hrs post dose up to 6 hrs by ELISA and creatinine companion assay. Format: functional, organism-based.
Test [18] relates to Mus musculus. The experiment in a line: Reduction in proteinuria in BALB/c mouse model of LPS-induced reversible proteinuric kidney disease at 300 ug/100 g body weight, ip measured 2 to 6 hrs post dose by ELISA. Format: functional, organism-based. In general terms: An ELISA detects its analyte on a solid surface through an enzyme-linked reagent.
The test system of test [19] is Mus musculus. The experiment in a line: Reduction in proteinuria in BALB/c mouse model of LPS-induced reversible proteinuric kidney disease at 300 ug/100 g body weight, ip measured 8 hrs post dose by ELISA. Format: functional, organism-based.

The source made the active and inactive calls. The rule behind the calls is not given here.

A word on the IC50: it is the point on the concentration scale where inhibition reaches its midpoint. With `N#C/C(=C\c1cc(O)c(O)c(O)c1)C(=O)NCCCNC(=O)/C(C#N)=C/c1cc(O)c(O)c(O)c1`, the result in test [1], in test [4], in test [10], in [11], in test [12] and in [13] was Active. Moreover, the result in test [14], in [15], in [17] and in test [18] was Active. The inhibition result in test [2], in test [9] and in test [16] was “Active” in each case. For the same compound, in test [3], the inhibition entry is “inactive”. Besides, the outcome in test [5], in test [8] and in test [19] was inactive. The IC50 in test [6] worked out at 500 nM. Moreover, the Activity entry in [7] was “Tde”.
